± gives the expanded uncertainty stated by the source.
Experiment: mn = molality of the nth substance listed, in mol/kg
Conditions: 101.3 kPa, Liquid; for viscosity: Capillary tube (Ostwald / Ubbelohde) method

CCCCCC(=O)[O-].[Na+] [sodium hexanoate] + O
viscosity (298.15 K, m1 = 0.5): 1.212 ± 0.01 mPa·s | viscosity (298.15 K, m1 = 1): 1.607 ± 0.013 mPa·s | viscosity (298.15 K, m1 = 1.5): 2.102 ± 0.017 mPa·s | viscosity (298.15 K, m1 = 2.177): 3.187 ± 0.026 mPa·s | mass density (298.15 K, m1 = 0.5): 1014.4 ± 0.17 kg/m3 | mass density (298.15 K, m1 = 1): 1029.41 ± 0.21 kg/m3 | mass density (298.15 K, m1 = 1.5): 1041.88 ± 0.24 kg/m3 | mass density (298.15 K, m1 = 2.177): 1054.22 ± 0.27 kg/m3 | viscosity (308.15 K, m1 = 0.5): 0.956 ± 0.008 mPa·s | viscosity (308.15 K, m1 = 1): 1.24 ± 0.011 mPa·s | viscosity (308.15 K, m1 = 1.5): 1.601 ± 0.013 mPa·s | viscosity (308.15 K, m1 = 2.177): 2.402 ± 0.02 mPa·s | mass density (308.15 K, m1 = 0.5): 1010.74 ± 0.17 kg/m3 | mass density (308.15 K, m1 = 1): 1024.96 ± 0.2 kg/m3 | mass density (308.15 K, m1 = 1.5): 1036.7 ± 0.23 kg/m3 | mass density (308.15 K, m1 = 2.177): 1048.72 ± 0.26 kg/m3

Source: the NIST ThermoML archive (doi:10.1016/j.jct.2003.11.001)
